Data on 32 molecules can be found in patent US12071404B2, “Aza (indole)-, benzothiophene-, and benzofuran-3-sulfonamides” (UCB Pharma GmbH, priority 2016, dated 2024).

Where only a bound is given, the exact number is not on record here.

GPR17, sequence (Q13304 whole entry): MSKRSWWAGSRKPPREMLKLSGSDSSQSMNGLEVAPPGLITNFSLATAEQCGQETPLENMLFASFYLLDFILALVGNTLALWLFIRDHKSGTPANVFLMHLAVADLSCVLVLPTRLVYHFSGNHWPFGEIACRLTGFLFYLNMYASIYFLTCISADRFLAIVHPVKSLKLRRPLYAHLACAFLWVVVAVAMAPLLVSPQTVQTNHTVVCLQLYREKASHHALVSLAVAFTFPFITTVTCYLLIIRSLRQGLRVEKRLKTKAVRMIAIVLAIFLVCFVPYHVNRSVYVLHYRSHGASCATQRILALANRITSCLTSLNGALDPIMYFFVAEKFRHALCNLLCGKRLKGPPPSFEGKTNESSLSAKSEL

This assay has as its target GPR17 (Homo sapiens, UniProt Q13304). The assay is described as follows: Calcium mobilization functional assay (GPR17 Ca2+ assay). It counts as cell-based. The arrangement: host or cells: Flp-In T-REx CHO. The settings on record: CHO hGPR17 cells, inhibition of 50 nM MDL29,951, Calcium 5 dye, FLIPR; read-out: Ca2+ assay pIC50 (converted). The method, then:
Flp-In T-REx CHO cells stably expressing human GPR17 receptor (CHO hGPR17) from Evi Kostenis' lab (Bonn University, Germany) were cultured at 37° C. in a humidified atmosphere of 5% CO2. Cells were grown in DMEM with Nutrient Mixture F-12 supplemented with hygromycin B (500 μg/mL) and blasticidin (30 μg/mL). Expression from the Flp-In locus was induced by treatment with doxycycline (1 μg/mL) for 16-20 h prior assays.
GPR17 is a G-protein coupled receptor. GPR17 activation triggers Gq-type G-protein signaling resulting in endoplasmic reticulum calcium (Ca^2+) stores release in cytosol which can be measured using Calcium 5 dye, a fluorescent indicator dye of cytosolic Ca^2+ levels. All Examples were tested in GPR17 Ca^2+ assay to determine (screen) their GPR17 modulating activity.
CHO hGPR17 were defrosted and seeded at a density of 20,000 cells per well into black 384-well plates with clear bottom. Cells were incubated overnight at 37° C. in a humidified atmosphere of 5% CO2. Sixteen to twenty hours after seeding, CHO hGPR17 were loaded for 60 min with Calcium 5 dye, a cytosolic Ca^2+ indicator fluorescent dye, according to manufacturer's instructions. Fluorescent signal relative to cytosolic Ca^2+ concentration was recorded over time at room temperature in FLIPR Tetra reader. […] Then, 50 nM MDL29,951, a GPR17 agonist, was added to the cells. Inhibitory effects of varying concentrations test compounds were measured and resulting plC50s were determined. […] Analysis and curve fitting were performed in ActivityBase XE using XLfit 4-parameter logistic equation y=A+((B−A)/(1+((C/x)^D))) where A, B, C and D stand for minimum y, maximum y, IC50 and slope, respectively.
The activities of the Example compounds tested are depicted in the table in Section B2B below. The activity ranges A, B and C refer to plC50 values in the Ca^2+ assay as follows: “A”: plC50<7.5, “B”: plC50 7.5<x≤ 8.5, “C”: plC50>8.5
In general terms: Calcium flux is commonly read through the fluorescence of an indicator in the cells.
For `Cc1cc(NS(=O)(=O)c2c[nH]c3cc(Cl)ccc23)ccc1C#N` [Compound I-209, 6-chloro-N-(4-cyano-3-methylphenyl)-1H-indole-3-sulfonamide], the IC50 is above 31.6 nM.

Regarding `COCc1ccc(NS(=O)(=O)c2c[nH]c3cc(Cl)ccc23)cc1` [Compound I-122, 6-chloro-N-(4-(methoxymethyl)phenyl)-1H-indole-3-sulfonamide], the IC50 is above 31.6 nM.

On to `COc1ccc2c(S(=O)(=O)Nc3cc4c(cc3F)OC(F)(F)O4)c[nH]c2c1` [Compound I-71, 6-methoxy-N-(2,2,6-trifluoro-1,3-benzodioxol-5-yl)-1H-indole-3-sulfonamide], for which the IC50 is above 31.6 nM.

As to `O=S1(=O)CCc2ccc(NS(=O)(=O)c3c[nH]c4cc(Cl)ccc34)cc21` [Compound I-10, 6-chloro-N-(1,1-dioxido-2,3-dihydro-1-benzothiophen-6-yl)-1H-indole-3-sulfonamide], the IC50 was above 31.6 nM.

On to `CS(=O)(=O)c1ccc2c(S(=O)(=O)Nc3cccc4c3OCO4)c[nH]c2c1` [Compound I-33, N-(1,3-benzodioxol-4-yl)-6-(methylsulfonyl)-1H-indole-3-sulfonamide], for which the IC50 is above 31.6 nM.

As for `O=S(=O)(Nc1cccc2c1OC(F)(F)O2)c1c[nH]c2nc(Br)ccc12` [Compound I-102, 6-bromo-N-(2,2-difluoro-1,3-benzodioxol-4-yl)-1H-pyrrolo[2,3-b]pyridine-3-sulfonamide], the IC50 was 3.16 to 31.6 nM.

As for `O=S(=O)(Nc1ccc(Cl)cc1F)c1c[nH]c2cc3c(cc12)OCO3` [Compound I-43, N-(4-chloro-2-fluorophenyl)-5H-[1,3]dioxolo[4,5-f]indole-7-sulfonamide], the IC50 was above 31.6 nM.

On to `O=S(=O)(Nc1cc(F)ccc1F)c1c[nH]c2cc3c(cc12)OCO3` [Compound I-30, N-(2,5-difluorophenyl)-5H-[1,3]dioxolo[4,5-f]indole-7-sulfonamide], for which the IC50 was above 31.6 nM.

Turning to `O=S(=O)(Nc1ncccc1F)c1c[nH]c2cc(Cl)ccc12` [Compound I-128, 6-chloro-N-(3-fluoropyridin-2-yl)-1H-indole-3-sulfonamide], the IC50 is above 31.6 nM.

As to `O=S(=O)(Nc1cccc2nsnc12)c1c[nH]c2cc(OCc3ccccc3)ccc12` [Compound I-156, N-(2,1,3-benzothiadiazol-4-yl)-6-(benzyloxy)-1H-indole-3-sulfonamide], the IC50 is above 31.6 nM.

As to `O=S(=O)(Nc1ccccc1Cl)c1c[nH]c2cc(Cl)ccc12` [Compound I-26, 6-chloro-N-(2-chlorophenyl)-1H-indole-3-sulfonamide], the IC50 is above 31.6 nM.

Consider `Cc1ccc2c(S(=O)(=O)Nc3cc(F)ccc3F)c[nH]c2c1` [Compound I-32, N-(2,5-difluorophenyl)-6-methyl-1H-indole-3-sulfonamide], for which the IC50 was above 31.6 nM.

For `N#Cc1ccc(NS(=O)(=O)c2c[nH]c3ccc(I)cc23)cc1` [Compound I-15, N-(4-cyanophenyl)-5-iodo-1H-indole-3-sulfonamide], the IC50 is above 31.6 nM.

Take `N#Cc1ccc(NS(=O)(=O)c2c[nH]c3cc(-c4ccncc4)ccc23)c(F)c1` [Compound I-231, N-(4-cyano-2-fluorophenyl)-6-(pyridin-4-yl)-1H-indole-3-sulfonamide]: the IC50 is above 31.6 nM.

Take `O=S(=O)(Nc1ccc(F)cn1)c1c[nH]c2cc(Cl)ccc12` [Compound I-62, 6-chloro-N-(5-fluoropyriidn-2-yl)-1H-indole-3-sulfonamide]: the IC50 is above 31.6 nM.

Take `O=S(=O)(Nc1cccc(F)c1Cl)c1c[nH]c2cc(Cl)ccc12` [Compound I-23, 6-chloro-N-(2-chloro-3-fluorophenyl)-1H-indole-3-sulfonamide]: the IC50 was above 31.6 nM.

Regarding `O=S(=O)(Nc1cccc2nsnc12)c1c[nH]c2c(Br)cccc12` [Compound I-111, N-(2,1,3-benzothiadiazol-4-yl)-7-bromo-1H-indole-3-sulfonamide], the IC50 is above 31.6 nM.

With `COc1ccc(-c2ccc3c(S(=O)(=O)Nc4ccc(C#N)cc4F)c[nH]c3c2)cc1` [Compound I-232, N-(4-cyano-2-fluorophenyl)-6-(4-methoxyphenyl)-1H-indole-3-sulfonamide], the IC50 was above 31.6 nM.

With `Cc1ccc2c(S(=O)(=O)Nc3ccc(C#N)cc3)c[nH]c2c1` [Compound I-20, N-(4-cyanophenyl)-6-methyl-1H-indole-3-sulfonamide], the IC50 was 3.16 to 31.6 nM.

As for `N#Cc1ccc(NS(=O)(=O)c2c[nH]c3cc(Cl)ccc23)c2nsnc12` [Compound I-163, 6-chloro-N-(7-cyano-2,1,3-benzothiadiazol-4-yl)-1H-indole-3-sulfonamide], the IC50 is above 31.6 nM.

Regarding `N#Cc1cc(F)c(NS(=O)(=O)c2c[nH]c3cc(F)cc(F)c23)cc1F` [Compound I-164, N-(4-cyano-2,5-difluorophenyl)-4,6-difluoro-1H-indole-3-sulfonamide], the IC50 was above 31.6 nM.

In the case of `N#Cc1ccc(NS(=O)(=O)c2c[nH]c3cc(Cl)ccc23)nc1` [Compound I-61, 6-chloro-N-(5-cyanopyridin-2-yl)-1H-indole-3-sulfonamide], the IC50 is above 31.6 nM.

With `Cc1cc(NS(=O)(=O)c2c[nH]c3cc(Cl)ccc23)c(F)cc1Cl` [Compound I-214, 6-chloro-N-(4-chloro-2-fluoro-5-methylphenyl)-1H-indole-3-sulfonamide], the IC50 was above 31.6 nM.

On to `COc1cccc(NS(=O)(=O)c2c[nH]c3cc(Cl)ccc23)n1` [Compound I-58, 6-chloro-N-(6-methoxypyridin-2-yl)-1H-indole-3-sulfonamide], for which the IC50 was above 31.6 nM.

For `COCCOc1ccc2c(S(=O)(=O)Nc3cc(F)c(C#N)cc3F)c[nH]c2c1` [Compound I-146, N-(4-cyano-2,5-difluorophenyl)-6-(2-methoxyethoxy)-1H-indole-3-sulfonamide], the IC50 is above 31.6 nM.

For `N#Cc1cc(F)c(NS(=O)(=O)c2c[nH]c3cc(F)ccc23)cc1F` [Compound I-165, N-(4-cyano-2,5-difluorophenyl)-6-fluoro-1H-indole-3-sulfonamide], the IC50 was below 3.16 nM.

As for `Cc1ccc(NS(=O)(=O)c2c[nH]c3cc(Cl)ccc23)cc1F` [Compound I-7, 6-chloro-N-(3-fluoro-4-methylphenyl)-1H-indole-3-sulfonamide], the IC50 is above 31.6 nM.

Turning to `O=S(=O)(Nc1c(F)ccc2nsnc12)c1c[nH]c2cc(Cl)ccc12` [Compound I-131, 6-chloro-N-(5-fluoro-2,1,3-benzothiadiazol-4-yl)-1H-indole-3-sulfonamide], the IC50 was above 31.6 nM.

As for `O=S(=O)(Nc1ccc2n[se]nc2c1)c1c[nH]c2cc(Cl)ccc12` [Compound I-161, N-(2,1,3-benzoselenadiazol-5-yl)-6-chloro-1H-indole-3-sulfonamide], the IC50 is 3.16 to 31.6 nM.

For the molecule `N#Cc1ccc(NS(=O)(=O)c2c[nH]c3c(Cl)cccc23)cc1` [Compound I-16, 7-chloro-N-(4-cyanophenyl)-1H-indole-3-sulfonamide], the IC50 was above 31.6 nM.

Take `N#Cc1ccc(NS(=O)(=O)c2c[nH]c3cc(F)cc(F)c23)c(F)c1` [Compound I-168, N-(4-cyano-2-fluorophenyl)-4,6-difluoro-1H-indole-3-sulfonamide]: the IC50 was 3.16 to 31.6 nM.

For the molecule `C#Cc1ccc(NS(=O)(=O)c2c[nH]c3cc(Cl)ccc23)cc1` [Compound I-22, 6-chloro-N-(4-ethynylphenyl)-1H-indole-3-sulfonamide], the IC50 is above 31.6 nM.
